Laboratory results published in the NIST ThermoML archive (doi:10.1016/j.tca.2013.03.010).

What was measured:
[1] = 101 kPa, Liquid; for viscosity: Capillary tube (Ostwald / Ubbelohde) method; for mass density: Vibrating tube method
[2] = xn = mol fraction of the nth substance listed; conditions: 101 kPa, Liquid; for viscosity: Capillary tube (Ostwald / Ubbelohde) method; for mass density: Vibrating tube method

OCCO [1,2-ethanediol]
[1]
Conditions | mass density [kg/m3] | viscosity [mPa·s]
298.15 K | – | 16.87
303.15 K | 1106 | 13.59
308.15 K | – | 11.34

OCCO [1,2-ethanediol] + CC(O)CO
[2], x1 = 1
Conditions | mass density [kg/m3] | viscosity [mPa·s]
298.15 K | – | 16.87
303.15 K | 1106 | 13.59
308.15 K | – | 11.34

OCCO [1,2-ethanediol] + OCCCO
[2], x1 = 1
Conditions | mass density [kg/m3] | viscosity [mPa·s]
298.15 K | – | 16.87
303.15 K | 1106 | 13.59
308.15 K | – | 11.34

CC(O)CO (stereo not given) [1,2-propanediol]
[1]
Conditions | mass density [kg/m3] | viscosity [mPa·s]
298.15 K | 1032.7 | 44.78
303.15 K | 1028.8 | 33.75
308.15 K | 1025.2 | 27

CC(O)CO (stereo not given) [1,2-propanediol] + OCCCO
[2], x1 = 1
Conditions | mass density [kg/m3] | viscosity [mPa·s]
298.15 K | 1032.7 | 44.78
303.15 K | 1028.8 | 33.75
308.15 K | 1025.2 | 27

CC(O)CO (stereo not given) [1,2-propanediol] + OCCO
[2]
Conditions | mass density, 298.15 K [kg/m3] | mass density, 303.15 K [kg/m3] | mass density, 308.15 K [kg/m3] | viscosity, 298.15 K [mPa·s] | viscosity, 303.15 K [mPa·s] | viscosity, 308.15 K [mPa·s]
x2 = 0 | 1032.7 | 1028.8 | 1025.2 | 44.78 | 33.75 | 27
x2 = 0.1208 | 1041 | 1036.9 | 1033.3 | 42.41 | 32.1 | 25.65
x2 = 0.2353 | 1048.6 | 1044.6 | 1041 | 40.03 | 30.14 | 24.13
x2 = 0.3454 | 1056.1 | 1052.1 | 1048.5 | 37.28 | 28.08 | 22.51
x2 = 0.4345 | 1062.3 | 1058.4 | 1054.7 | 34.74 | 26.24 | 21.05
x2 = 0.5508 | 1070.8 | 1066.9 | 1063.4 | 31.35 | 23.8 | 19.11
x2 = 0.6303 | 1077 | 1073.1 | 1069.5 | 28.91 | 22.06 | 17.78
x2 = 0.7473 | 1086.6 | 1082.7 | 1079.2 | 25.33 | 19.52 | 15.82
x2 = 0.8302 | 1093.7 | 1089.8 | 1086.4 | 22.72 | 17.62 | 14.39
x2 = 0.9065 | 1100.6 | 1096.8 | 1093.4 | 20.16 | 15.86 | 13.07

OCCCO [propan-1,3-diol]
[1]
Conditions | mass density [kg/m3] | viscosity [mPa·s]
298.15 K | 1049.6 | 41.36
303.15 K | 1046.2 | 32.78
308.15 K | 1043.1 | 26.34

OCCCO [propan-1,3-diol] + CC(O)CO
[2]
Conditions | mass density, 298.15 K [kg/m3] | mass density, 303.15 K [kg/m3] | mass density, 308.15 K [kg/m3] | viscosity, 298.15 K [mPa·s] | viscosity, 303.15 K [mPa·s] | viscosity, 308.15 K [mPa·s]
x2 = 0 | 1049.6 | 1046.2 | 1043.1 | 41.36 | 32.78 | 26.34
x2 = 0.1002 | 1049.1 | 1046 | 1043 | 41.77 | 32.93 | 26.45
x2 = 0.2105 | 1048.3 | 1045.6 | 1042.8 | 42.23 | 33.12 | 26.56
x2 = 0.2994 | 1047.8 | 1045.1 | 1042.2 | 42.59 | 33.26 | 26.66
x2 = 0.4088 | 1046.9 | 1044.1 | 1041 | 43.02 | 33.43 | 26.75
x2 = 0.5002 | 1045.9 | 1043 | 1039.9 | 43.38 | 33.56 | 26.84
x2 = 0.5937 | 1044.7 | 1041.7 | 1038.5 | 43.73 | 33.66 | 26.91
x2 = 0.7125 | 1042.6 | – | – | 44.08 | 33.73 | 26.94
x2 = 0.7126 | – | 1039.3 | 1036 | – | – | –
x2 = 0.7996 | 1040.2 | 1036.7 | 1033.5 | 44.31 | 33.75 | 26.96
x2 = 0.9217 | 1036.5 | 1033 | 1029.7 | 44.62 | 33.76 | 26.99

OCCCO [propan-1,3-diol] + OCCO
[2]
Conditions | mass density, 298.15 K [kg/m3] | mass density, 303.15 K [kg/m3] | mass density, 308.15 K [kg/m3] | viscosity, 298.15 K [mPa·s] | viscosity, 303.15 K [mPa·s] | viscosity, 308.15 K [mPa·s]
x2 = 0 | 1049.6 | 1046.2 | 1043.1 | 41.36 | 32.78 | 26.34
x2 = 0.1107 | 1055.3 | 1051.7 | 1048.5 | 39.55 | 31.2 | 24.94
x2 = 0.2024 | 1060.1 | 1056.5 | 1053.1 | 37.7 | 29.75 | 23.7
x2 = 0.3597 | 1069.3 | 1065.7 | 1061.9 | 34.33 | 26.96 | 21.43
x2 = 0.4617 | 1075.7 | 1072 | 1068.1 | 31.96 | 25.06 | 19.91
x2 = 0.551 | 1081.4 | 1077.6 | 1073.6 | 29.75 | 23.32 | 18.56
x2 = 0.6258 | 1086.2 | 1082.3 | 1078.3 | 27.76 | 21.77 | 17.39
x2 = 0.7354 | 1093.1 | 1089.2 | 1085.2 | 24.77 | 19.45 | 15.66
x2 = 0.8285 | 1099.1 | 1095.2 | 1091.1 | 22.09 | 17.39 | 14.15
x2 = 0.9105 | 1104.5 | 1100.7 | 1096.5 | 19.62 | 15.64 | 12.82
